Where two headings read alike, the source gives them in different places.
Key:
HCV 1b replicon = experiment: Secondary HCV antiviral assay: qRT-PCR; format: cell-based
[1] = tested on: cell line ET (luc-ubi-neo/ET), Huh7 human hepatoma cell line
[2] = tested on: cell line ET (luc-ubi-neo/ET), Huh7 human hepatoma cell line; experiment: Cytotoxicity in secondary assay; conditions: cellular ribosomal RNA as cytotoxicity control
[3] = Metabolic stability assay; format: in vitro ADME, human
[4] = cited from earlier work
in vitro = conditions: human
[5] = Cytotoxicity in secondary assay; conditions: human
[6] = qRT-PCR (TaqMan) of HCV RNA, single assay, quadruplicate wells
[7] = human liver microsomes, 0.1 µM, NADPH-regenerating system, 37 °C, mean of two independent experiments

| SMILES | EC50 (HCV 1b replicon; [6]) | EC90 (HCV 1b replicon; [6]) | CC50 [1] | CC50 [2] | Clint ([3]; human, microsomes) | T1/2 ([3]; human, microsomes) | further results |
| --- | --- | --- | --- | --- | --- | --- | --- |
| CC(C)CCOC(=O)[C@H](COCc1ccccc1)NP(=O)(OC[C@H]1O[C@@H](n2ccc(=O)[nH]c2=O)[C@](C)(O)[C@@H]1O)Oc1ccccc1 (stereo partly drawn) [31e, 2′-C-Methyl-uridine-5′-[phenyl(α-isoamyl-β-O-benzyl-L-serine)]phosphate] | 0.01 µM | 0.08 µM | 8 µM | 4.59 µM | – | – | – |
| CCCCCOC(=O)[C@H](COC(=O)C(C)C)NP(=O)(OC[C@H]1O[C@@H](n2ccc(=O)[nH]c2=O)[C@](C)(O)[C@@H]1O)Oc1ccccc1 (stereo partly drawn) [31g, 2′-C-Methyl-uridine-5′-[phenyl(α-amyl-β-O-isobutyryl-L-serine)]phosphate] | – | – | 6.79 µM | – | – | – | – |
| CCCCCOC(=O)[C@H](COCc1ccccc1)NP(=O)(OC[C@H]1O[C@@H](n2ccc(=O)[nH]c2=O)[C@](C)(O)[C@@H]1O)Oc1ccccc1 (stereo partly drawn) [31d, 2′-C-Methyl-uridine-5′-[phenyl(α-amyl-β-O-benzyl-L-serine)]phosphate] | – | – | 5.89 µM | – | 496.80 µl/min/mg protein | 14 min | – |
| CC(C)CCOC(=O)[C@H](Cc1ccc(OC(=O)C(C)C)cc1)NP(=O)(OCC1OC(n2ccc(=O)[nH]c2=O)C(C)(O)C1O)Oc1ccccc1 (stereo partly drawn) [31k, 2′-C-Methyl-uridine-5′-[phenyl(isoamyl-O-isobutyryl-L-tyrosine)]phosphate] | 0.04 µM | 0.69 µM | – | 18.4 µM | – | – | Clint [3, 7]: 679.60 µl/min/mg protein; T1/2 [3, 7]: 10 min; CC50 ([1]; concentration decreasing cell viability by 50%, 72 hrs, CytoTox-ONE): > 20 µM |
| COC(=O)[C@H](COC(=O)C(C)C)NP(=O)(OC[C@H]1O[C@@H](n2ccc(=O)[nH]c2=O)[C@](C)(O)[C@@H]1O)Oc1ccccc1 (stereo partly drawn) [31f, 2′-C-Methyl-uridine-5′-[phenyl(α-methoxy-β-O-isobutyryl-L-serine)]phosphate] | – | – | > 20 µM | – | – | – | – |
| CC(C)OC(=O)[C@H](C)N[P@](=O)(OC[C@H]1O[C@@H](n2ccc(=O)[nH]c2=O)[C@](C)(F)[C@@H]1O)Oc1ccccc1 [Sofosbuvir, reference compound] | – | – | – | – | – | – | EC50 (HCV 1b replicon; Hepatitis C virus): 0.07 µM; EC90 (HCV 1b replicon; Hepatitis C virus): 0.28 µM; cytotoxicity (devoid up to) [4]: > 100 µM; CC50 (in vitro): > 5 µM; CC50 [5]: > 5 µM |
| C[C@@]1(O)[C@H](O)[C@@H](CO)O[C@H]1n1ccc(=O)[nH]c1=O [2’-C-Me-uridine, reference compound] | – | – | > 100 µM | – | – | – | – |
| CC(C)CCOC(=O)[C@H](COC(=O)C(C)C)NP(=O)(OC[C@H]1O[C@@H](n2ccc(=O)[nH]c2=O)[C@](C)(O)[C@@H]1O)Oc1ccccc1 (stereo partly drawn) [31h, 2′-C-Methyl-uridine-5′-[phenyl(α-isoamyl-β-O-isobutyryl-L-serine)]phosphate] | 0.02 µM | 0.13 µM | 7.51 µM | 5.28 µM | 763.70 µl/min/mg protein | 9 min | – |
| COC(=O)CC[C@H](NP(=O)(OC[C@H]1O[C@@H](n2ccc(=O)[nH]c2=O)[C@](C)(O)[C@@H]1O)Oc1ccccc1)C(=O)OC (stereo partly drawn) [31a, 2′-C-Methyl-uridine-5′-[phenylbis(methoxy-L-glutamyl)]phosphate] | – | – | > 20 µM | – | – | – | – |
| CC(C)CCOC(=O)[C@@H](NP(=O)(OC[C@H]1O[C@@H](n2ccc(=O)[nH]c2=O)[C@](C)(O)[C@@H]1O)Oc1ccccc1)[C@@H](C)OC(=O)C(C)C (stereo partly drawn) [31j, 2′-C-Methyl-uridine-5′-[phenyl(isoamyl-O-isobutyryl-L-threonine)]phosphate] | – | – | 11.5 µM | – | – | – | – |
| CC(C)CCOC(=O)CC[C@H](NP(=O)(OC[C@H]1O[C@@H](n2ccc(=O)[nH]c2=O)[C@](C)(O)[C@@H]1O)Oc1ccccc1)C(=O)OCCC(C)C (stereo partly drawn) [31b, 2′-C-Methyl-uridine-5′-[phenylbis(isoamyl-L-glutamyl)]phosphate] | 0.01 µM | 0.13 µM | > 20 µM | 9.98 µM | 844.60 µl/min/mg protein | 8 min | – |
| COC(=O)[C@H](COCc1ccccc1)NP(=O)(OC[C@H]1O[C@@H](n2ccc(=O)[nH]c2=O)[C@](C)(O)[C@@H]1O)Oc1ccccc1 (stereo partly drawn) [31c, 2′-C-Methyl-uridine-5′-[phenyl(α-methoxy-β-O-benzyl-L-serine)]phosphate] | – | – | > 20 µM | – | – | – | – |
| CC(C)CCOC(=O)[C@@H](NP(=O)(OC[C@H]1O[C@@H](n2ccc(=O)[nH]c2=O)[C@](C)(O)[C@@H]1O)Oc1ccccc1)[C@@H](C)OCc1ccccc1 (stereo partly drawn) [31i, 2′-C-Methyl-uridine-5′-[phenyl(isoamyl-O-benzyl-L-threonine)]phosphate] | 0.04 µM | 0.69 µM | > 20 µM | 7.27 µM | 699.00 µl/min/mg protein | 10 min | – |

Source: PMC5079539 (Organic & biomolecular chemistry, 2016)
